Measured values as given in US4721787A, “Process for the preparation of benzo-(pyrano and thiopyrano)-pyridines” (Ciba-Geigy Corporation, priority 1985, dated 1988).

System: presynaptic dopamine receptor (dopamine autoreceptor)
Test: rat gamma-butyrolactone (GBL) model, in-vivo presynaptic dopamine agonist (autoreceptor agonist) activity
Conditions: i.p.
Method: Indicative of potential neuroleptic activity of the compounds of the invention, the in-vivo presynaptic dopamine agonist activity (also called dopamine autoreceptor agonist activity) is determined in the rat gamma-butyrolactone (GBL) model by a modification of the procedure described by Walters and Roth, Naunyn Schmiedeberg's Arch. Pharmacol. 296, 5 (1976). In this model, a presynaptic dopamine agonist inhibits the GBL-induced accumulation of the dopamine precursor DOPA after pretreatment with 3-hydroxybenzylhydrazine (NSD-1015), a DOPA decarboxylase inhibitor.
Test compounds are dissolved in 0.9% saline, with sodium metabisulfite to prevent oxidation, if required. […] Dihydroxyphenylalanine (DOPA) is analyzed by High Pressure Liquid Chromatography/Electrochemistry (HPLC/EC) techniques using a Bio-analytical Systems (BAS) Model LC-150 series Liquid Chromatograph. […] Compounds are detected with an electro-chemical detector having an oxidizing potential of 0.7 volts and sensitivity setting of 20 nAmps/V. Tissue concentrations and recoveries are calculated by using the internal standard dihydroxybenzylamine (DHBA). […] Data is statistically analysed by one-way Analysis of Variance with Duncan's Multiple Comparison Test. The activity of the test compounds is determined as the percent inhibition of DOPA accumulation at a given dose. […]

Compound: CCCN1CCC[C@@H]2c3cc(O)ccc3OC[C@H]21.Cl (relative stereo) [trans-9-hydroxy-4-propyl-1,2,3,4a,5,10b-hexahydro-4H-[1]-benzopyrano[3,4-b]pyridine hydrochloride]
- ED50 in the GBL model (inhibition of DOPA accumulation by 50%): about 0.16 mg/kg
